Test results published in ChEMBL document CHEMBL5291721, “A preclinical secondary pharmacology resource illuminates target-adverse drug reaction associations of marketed drugs” (Nat Commun, 2023).

Key:
Estrogen receptor = molecular target: T1, Estrogen receptor (Homo sapiens, UniProt P03372); format: functional
T1 sequence (P03372 whole entry): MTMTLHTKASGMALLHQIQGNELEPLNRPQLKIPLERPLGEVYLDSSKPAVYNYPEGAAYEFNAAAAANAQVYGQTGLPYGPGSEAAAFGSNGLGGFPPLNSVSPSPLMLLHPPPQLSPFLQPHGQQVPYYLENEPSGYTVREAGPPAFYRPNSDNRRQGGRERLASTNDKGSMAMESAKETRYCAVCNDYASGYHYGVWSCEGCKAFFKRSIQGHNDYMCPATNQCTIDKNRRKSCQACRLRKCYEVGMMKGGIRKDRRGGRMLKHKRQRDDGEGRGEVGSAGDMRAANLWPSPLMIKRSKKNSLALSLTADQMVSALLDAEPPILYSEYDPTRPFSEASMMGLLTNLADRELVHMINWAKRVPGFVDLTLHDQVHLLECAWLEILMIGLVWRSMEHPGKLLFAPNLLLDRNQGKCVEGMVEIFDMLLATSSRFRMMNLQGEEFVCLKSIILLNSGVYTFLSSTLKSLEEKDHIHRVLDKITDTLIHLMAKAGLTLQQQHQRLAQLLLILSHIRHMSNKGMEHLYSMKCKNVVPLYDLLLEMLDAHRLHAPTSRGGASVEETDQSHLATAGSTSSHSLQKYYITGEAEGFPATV

[1] = molecular target: T2, Retinoic acid receptor gamma (Homo sapiens, UniProt P13631); format: functional, cell-based
T2 sequence (P13631 whole entry): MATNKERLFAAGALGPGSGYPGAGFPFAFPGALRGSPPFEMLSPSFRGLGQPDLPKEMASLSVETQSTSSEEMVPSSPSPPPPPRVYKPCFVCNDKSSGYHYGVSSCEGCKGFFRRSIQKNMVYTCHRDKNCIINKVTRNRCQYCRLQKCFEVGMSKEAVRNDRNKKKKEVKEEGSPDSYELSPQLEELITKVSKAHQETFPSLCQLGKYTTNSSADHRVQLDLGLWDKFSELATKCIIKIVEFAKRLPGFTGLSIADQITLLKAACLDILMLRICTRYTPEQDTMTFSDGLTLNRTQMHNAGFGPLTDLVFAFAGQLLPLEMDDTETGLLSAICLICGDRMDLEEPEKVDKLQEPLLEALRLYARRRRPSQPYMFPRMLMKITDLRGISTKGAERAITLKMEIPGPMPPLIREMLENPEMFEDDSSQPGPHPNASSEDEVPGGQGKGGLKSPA
Further: assay procedure not described here.

| AC50 (Estrogen receptor) [µM] | AC50 [1] [µM] | SMILES |
| --- | --- | --- |
| > 30 |  | [H]/N=C(/N)c1ccc(NCc2nc3cc(C(=O)N(CCC(=O)O)c4ccccn4)ccc3n2C)cc1 [DABIGATRAN] |
|  | > 30 | CC(C)c1c(C(=O)Nc2ccccc2)c(-c2ccccc2)c(-c2ccc(F)cc2)n1CC[C@@H](O)C[C@@H](O)CC(=O)O [ATORVASTATIN] |
